Data on 14 compounds can be found in patent US5223526A, “Pyrazole carboxanilide fungicides and use” (Monsanto Company, priority 1992, dated 1993).

Structures are written as SMILES.

The target in one experiment is T1, succinate dehydrogenase (Botrytis cinerea, UniProt A0A384J5E4+A0A384J8V8+A0A384JHJ5).
T1 construct: succinate-DCPIP reductase assay with KCN
As to the kind of experiment: Enzyme inhibition: succinate dehydrogenase activity in Botrytis cinerea mitochondria (DCPIP reduction). The experiment is classed as biochemical. The conditions noted are these: concentration required to inhibit the rate of DCPIP reduction by 50%; Botrytis cinerea isolate Nick mitochondria; read-out: I50 (μM conc.). The method, boiled down:
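DCPIP (45 μM) reduction at 600 nm tracked with 17 mM succinate, 1 mM KCN and 50 mM potassium phosphate, pH 7.2. Compounds were added in acetone (final 1% v/v), and Botrytis cinerea isolate Nick mitochondrial fraction initiated the reaction. Rates minus endogenous activity gave percentage inhibition, plotted semilog against concentration to derive I50 (μM).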

Experiment [1] relates to Botrytis cinerea. As to the kind of experiment: Eggplant grey mold. Details: scale not given here. The experiment is classed as in vivo. Particulars: inoculated 24 h later, rated after 3-4 days; for Disease Control Rating at 500 ppm: eggplant sprayed with 500 ppm; for Disease Control Rating at 20 ppm: eggplant sprayed with 20 ppm; for Disease Control Rating at 100 ppm: eggplant sprayed with 100 ppm. The method in brief:
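Protective test: compound formulations (2:3 acetone:water, 0.5% Tween 20; 500, 100 or 20 ppm) sprayed on 14-18-day-old plants, with spore inoculum (4×10^6 spore/mL) applied a day later. Disease control rated on Botrytis lesions after 3-4 days at 23 °C and 100% humidity.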

The subject of a further experiment is Rhizoctonia solani. As to the kind of experiment: Rice sheath blight. The experiment is classed as in vivo. Details: scale not given here. Particulars: inoculated two days later, rated after 7 days, average of five plants; for Disease Control Rating at 0.02 mg/mL: foliage and soil sprayed with 0.02 mg/mL; for Disease Control Rating at 0.1 mg/mL: foliage and soil sprayed with 0.1 mg/mL; for Disease Control Rating at 0.5 mg/mL: foliage and soil sprayed with 0.5 mg/mL. The method in brief:
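Preventive test: R. solani inoculum on rice grain was applied at the plant base two days after spraying foliage and soil with Compound A (0.5, 0.1 or 0.02 mg/mL, water/acetone/Tween 20). Plants aged 11–15 days stood in flood trays; after 7 days at 25 °C and high humidity, disease control was rated against untreated plants, five plants averaged.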

Experiment [2] has as its system Botrytis cinerea. The experiment in a line: Vine grey mold (grape berries). The experiment is classed as in vivo. Particulars: average of six berries, 7-10 days; for pest or weed control at 50 ppm: grape berries treated with 50 ppm, read-out: % DISEASE CONTROL 50 ppm; for pest or weed control at 200 ppm: grape berries treated with 200 ppm, read-out: % DISEASE CONTROL 200 ppm. The method, boiled down:
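Preventive berry test: compound at 50 or 200 ppm (acetone/water, 0.05% Tween 20) applied one day before inoculation with 10^6 spores/mL Botrytis conidia. After 7-10 days at 20 °C under 12 h light, infected surface area rated; disease control expressed as percent reduction from control mean; repeated-test values averaged.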

T1 sequence (A0A384J5E4 1-300): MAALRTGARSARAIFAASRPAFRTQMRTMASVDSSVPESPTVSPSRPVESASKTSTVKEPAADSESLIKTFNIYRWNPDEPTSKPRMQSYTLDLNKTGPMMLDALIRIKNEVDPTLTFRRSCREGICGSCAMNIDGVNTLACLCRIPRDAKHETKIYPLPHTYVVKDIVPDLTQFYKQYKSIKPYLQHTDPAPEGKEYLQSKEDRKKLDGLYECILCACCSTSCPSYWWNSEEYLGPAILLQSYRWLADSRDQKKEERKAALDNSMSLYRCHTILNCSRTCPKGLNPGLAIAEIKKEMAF
T1 sequence (A0A384J8V8 1-189): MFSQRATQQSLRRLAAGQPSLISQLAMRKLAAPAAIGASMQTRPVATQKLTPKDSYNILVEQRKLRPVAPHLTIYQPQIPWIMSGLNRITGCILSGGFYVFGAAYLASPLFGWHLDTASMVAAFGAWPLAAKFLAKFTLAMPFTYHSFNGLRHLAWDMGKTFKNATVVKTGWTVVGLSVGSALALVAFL
T1 sequence (A0A384JHJ5 1-192): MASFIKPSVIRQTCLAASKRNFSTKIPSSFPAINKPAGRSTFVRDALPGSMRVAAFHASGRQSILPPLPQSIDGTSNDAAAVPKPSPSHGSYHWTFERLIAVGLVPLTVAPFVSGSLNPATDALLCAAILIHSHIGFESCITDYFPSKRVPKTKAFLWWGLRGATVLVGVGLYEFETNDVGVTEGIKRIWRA
T1 sequence (A0A384K456 1-647 partner): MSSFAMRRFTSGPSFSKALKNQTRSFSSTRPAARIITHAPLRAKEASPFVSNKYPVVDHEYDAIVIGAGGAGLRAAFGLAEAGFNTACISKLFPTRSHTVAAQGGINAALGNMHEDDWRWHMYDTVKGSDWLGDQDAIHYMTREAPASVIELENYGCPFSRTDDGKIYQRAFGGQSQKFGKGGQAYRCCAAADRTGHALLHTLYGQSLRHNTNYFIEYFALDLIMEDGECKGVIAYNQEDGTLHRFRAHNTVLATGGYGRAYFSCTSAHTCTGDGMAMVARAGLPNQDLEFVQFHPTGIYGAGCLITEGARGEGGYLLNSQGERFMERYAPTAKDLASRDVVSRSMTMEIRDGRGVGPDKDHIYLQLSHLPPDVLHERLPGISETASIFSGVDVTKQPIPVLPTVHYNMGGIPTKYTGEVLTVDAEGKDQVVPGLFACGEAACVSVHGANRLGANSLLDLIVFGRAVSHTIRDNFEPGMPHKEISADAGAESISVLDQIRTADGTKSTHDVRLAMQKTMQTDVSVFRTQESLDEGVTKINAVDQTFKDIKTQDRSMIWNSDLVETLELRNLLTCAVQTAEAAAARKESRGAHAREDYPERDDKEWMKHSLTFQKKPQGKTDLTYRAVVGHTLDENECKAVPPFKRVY

Consider `Cc1c(C(=O)Nc2ccccc2C2CCCCCC2)c(C(F)(F)F)nn1C` [Example 99, 1H-pyrazole-4-carboxamide, N-(2-cycloheptylphenyl)-1,5-dimethyl-3-(trifluoromethyl)-], for which the IC50 on succinate dehydrogenase worked out at 0.065 µM. For the same compound, the “Disease Control Rating at 500 ppm” value in the experiment on Botrytis cinerea [1] came out at 1. In the experiment with Rhizoctonia solani, the “Disease Control Rating at 0.02 mg/mL” value was determined as 2, the “Disease Control Rating at 0.1 mg/mL” value was 3 and the “Disease Control Rating at 0.5 mg/mL” value turned out to be 3. In the experiment with Botrytis cinerea [2], the pest or weed control at 50 ppm came to 27% and the pest or weed control at 200 ppm stood at 53%.
As to `Cc1c(C(=O)Nc2ccccc2C2CCCC2)c(C(F)(F)F)nn1C` [Example 101, 1H-pyrazole-4-carboxamide, N-(2-cyclopentylphenyl)-1,5-dimethyl-3-(trifluoromethyl)-], the IC50 on succinate dehydrogenase was 1.4 µM. Also, the “Disease Control Rating at 500 ppm” value with Botrytis cinerea [1] is recorded as 0. Also, in the experiment with Rhizoctonia solani, the “Disease Control Rating at 0.02 mg/mL” value came out at 0, the “Disease Control Rating at 0.1 mg/mL” value came out at 1 and the “Disease Control Rating at 0.5 mg/mL” value is 3. In the experiment on Botrytis cinerea [2], the pest or weed control at 50 ppm was 10% and the pest or weed control at 200 ppm came out at 16%.
Consider `Cn1cc(C(=O)Nc2ccccc2C2=CCOCC2)c(C(F)F)n1` [Example 104, 1H-pyrazole-4-carboxamide, 3-(difluoromethyl)-N-[2-(5,6-dihydro-2H-pyran-4-yl)phenyl]-1-methyl-], for which, on succinate dehydrogenase, the IC50 turned out to be 0.77 µM. In addition, in the experiment on Botrytis cinerea [1], the “Disease Control Rating at 500 ppm” value turned out to be 0. Besides, the “Disease Control Rating at 0.5 mg/mL” value in the experiment on Rhizoctonia solani is 0. Moreover, in the experiment on Botrytis cinerea [2], the pest or weed control at 50 ppm came to 0% and the pest or weed control at 200 ppm was 48%.
Take `Cc1c(C(=O)Nc2ccccc2C2CCCCCC2)c(Cl)nn1C` [Example 105, 1H-py-razole-4-carboxamide, 3-chloro-N-(2-cycloheptylphenyl)-1,5-dimethyl-]: the IC50 at succinate dehydrogenase is 0.26 µM. Also, in the experiment with Botrytis cinerea [1], the “Disease Control Rating at 20 ppm” value is 0, the “Disease Control Rating at 100 ppm” value came to 0 and the “Disease Control Rating at 500 ppm” value is 1. The “Disease Control Rating at 0.5 mg/mL” value with Rhizoctonia solani stood at 0. In addition, in the experiment on Botrytis cinerea [2], the pest or weed control at 50 ppm stood at 6% and the pest or weed control at 200 ppm came to 0%.
Consider `Cc1nn(C)c(Cl)c1C(=O)Nc1ccccc1C1CCCCCC1` [Example 107, 1H-pyrazole-4-carboxamide, 5-chloro-N-(2-cycloheptylphenyl)-1,3-dimethyl-], for which the IC50 at succinate dehydrogenase was found to be 0.055 µM. Further, the “Disease Control Rating at 500 ppm” value with Botrytis cinerea [1] was determined as 0. In addition, in the experiment on Rhizoctonia solani, the “Disease Control Rating at 0.02 mg/mL” value is listed as 1, the “Disease Control Rating at 0.1 mg/mL” value was 3 and the “Disease Control Rating at 0.5 mg/mL” value was determined as 3. Moreover, in the experiment on Botrytis cinerea [2], the pest or weed control at 50 ppm is 27% and the pest or weed control at 200 ppm amounted to 49%.
For the compound `Cn1cc(C(=O)Nc2ccccc2C2=CCOCC2)c(C(F)(F)F)n1` [Example 108, 1H-pyrazole-4-carboxamide, N-[2-(5,6-dihydro-2H-pyran-4-yl)phenyl]-1-methyl-3-(trifluoromethyl)-], the IC50 at succinate dehydrogenase came out at 1.6 µM. Also, the “Disease Control Rating at 500 ppm” value with Botrytis cinerea [1] is 0. Further, the “Disease Control Rating at 0.5 mg/mL” value with Rhizoctonia solani was 0. In the experiment on Botrytis cinerea [2], the pest or weed control at 50 ppm was found to be 12% and the pest or weed control at 200 ppm was found to be 0%.
As for `Cn1cc(C(=O)Nc2ccccc2C2=CCCCC2)c(C(F)F)n1` [Example 109, 1H-pyrazole-4-carboxamide, N-[2-(1-cyclohexen-1-yl)phenyl]-3-(difluoromethyl)-1-methyl-], on succinate dehydrogenase, the IC50 is 0.0072 µM. Moreover, the “Disease Control Rating at 500 ppm” value in the experiment with Botrytis cinerea [1] turned out to be 0. In the experiment on Rhizoctonia solani, the “Disease Control Rating at 0.02 mg/mL” value is reported as 0, the “Disease Control Rating at 0.1 mg/mL” value is recorded as 1 and the “Disease Control Rating at 0.5 mg/mL” value is 3. Also, in the experiment on Botrytis cinerea [2], the pest or weed control at 50 ppm amounted to 100% and the pest or weed control at 200 ppm is 100%.
Consider `Cn1cc(C(=O)Nc2ccccc2C2=CCCCC2)c(C(F)(F)F)n1` [Example 110, 1H-pyrazole-4-carboxamide, N-[2-(1-cyclohexen-1-yl)phenyl]-1-methyl-3-(trifluoromethyl)-], for which the IC50 at succinate dehydrogenase amounted to 0.019 µM. In the experiment with Botrytis cinerea [1], the “Disease Control Rating at 20 ppm” value is listed as 1, the “Disease Control Rating at 100 ppm” value is 2 and the “Disease Control Rating at 500 ppm” value amounted to 2. Besides, in the experiment on Rhizoctonia solani, the “Disease Control Rating at 0.02 mg/mL” value came to 0, the “Disease Control Rating at 0.1 mg/mL” value amounted to 0 and the “Disease Control Rating at 0.5 mg/mL” value was 3. For the same compound, in the experiment on Botrytis cinerea [2], the pest or weed control at 50 ppm is 97% and the pest or weed control at 200 ppm came out at 100%.
Turning to `Cn1cc(C(=O)Nc2ccccc2C2=CCCCCC2)c(C(F)F)n1` [Example 111, 1H-pyrazole-4-carboxamide, N-[2-(1-cyclohepten-1-yl)phenyl]-3-(difluoromethyl)-1-methyl-], the IC50 on succinate dehydrogenase was 0.0038 µM. In the experiment with Botrytis cinerea [1], the “Disease Control Rating at 20 ppm” value worked out at 1, the “Disease Control Rating at 100 ppm” value was 1 and the “Disease Control Rating at 500 ppm” value amounted to 1. Further, in the experiment with Rhizoctonia solani, the “Disease Control Rating at 0.02 mg/mL” value was found to be 3, the “Disease Control Rating at 0.1 mg/mL” value is 3 and the “Disease Control Rating at 0.5 mg/mL” value turned out to be 3. For the same compound, in the experiment with Botrytis cinerea [2], the pest or weed control at 50 ppm is 99% and the pest or weed control at 200 ppm was 100%.
In the case of `Cn1cc(C(=O)Nc2ccccc2C2=CCCCCC2)c(C(F)(F)F)n1` [Example 112, 1H-pyrazole-4-carboxamide, N-[2-(1-cyclohepten-1-yl)phenyl]-1-methyl-3-(trifluoromethyl)-], the IC50 at succinate dehydrogenase is 0.0021 µM. In addition, in the experiment on Botrytis cinerea [1], the “Disease Control Rating at 20 ppm” value is 2, the “Disease Control Rating at 100 ppm” value amounted to 3 and the “Disease Control Rating at 500 ppm” value is 3. Moreover, in the experiment with Rhizoctonia solani, the “Disease Control Rating at 0.5 mg/mL” value amounted to 0. Also, in the experiment with Botrytis cinerea [2], the pest or weed control at 50 ppm was found to be 88% and the pest or weed control at 200 ppm came to 95%.
Consider `Cc1nn(C)c(F)c1C(=O)Nc1ccccc1C1CCCCCC1` [Example 113, 1H-pyrazole-4-carboxamide, N-(2-cycloheptylphenyl)-5-fluoro-1,3-dimethyl-], for which the IC50 on succinate dehydrogenase is 0.013 µM. Also, in the experiment with Botrytis cinerea [1], the “Disease Control Rating at 20 ppm” value stood at 1, the “Disease Control Rating at 100 ppm” value worked out at 1 and the “Disease Control Rating at 500 ppm” value turned out to be 3. In addition, in the experiment with Rhizoctonia solani, the “Disease Control Rating at 0.02 mg/mL” value was determined as 3, the “Disease Control Rating at 0.1 mg/mL” value was 3 and the “Disease Control Rating at 0.5 mg/mL” value is recorded as 3. In the experiment with Botrytis cinerea [2], the pest or weed control at 50 ppm is 28% and the pest or weed control at 200 ppm worked out at 60%.
Take `Cn1nc(C(F)F)c(C(=O)Nc2ccccc2C2CCCCCC2)c1Cl` [Example 114, 1H-pyrazole-4-carboxamide, 5-chloro-N-(2-cycloheptylphenyl)-3-(difluoromethyl)-1-methyl-]: the IC50 at succinate dehydrogenase was 0.0036 µM. Further, in the experiment on Botrytis cinerea [1], the “Disease Control Rating at 20 ppm” value worked out at 0, the “Disease Control Rating at 100 ppm” value was found to be 1 and the “Disease Control Rating at 500 ppm” value is on record as 2. In the experiment with Rhizoctonia solani, the “Disease Control Rating at 0.02 mg/mL” value amounted to 3, the “Disease Control Rating at 0.1 mg/mL” value is listed as 3 and the “Disease Control Rating at 0.5 mg/mL” value is 3. In addition, in the experiment with Botrytis cinerea [2], the pest or weed control at 50 ppm was 78% and the pest or weed control at 200 ppm amounted to 90%.
Take `Cn1nc(C(F)F)c(C(=O)Nc2ccccc2C2CCCCCC2)c1F` [Example 115, 1H-pyrazole-4-carboxamide, N-(2-cycloheptylphenyl)-3-(difluoromethyl)-5-fluoro-1-methyl-]: the IC50 at succinate dehydrogenase amounted to 0.0065 µM. In addition, in the experiment with Botrytis cinerea [1], the “Disease Control Rating at 20 ppm” value was determined as 1, the “Disease Control Rating at 100 ppm” value was 2 and the “Disease Control Rating at 500 ppm” value was determined as 3. Further, in the experiment with Rhizoctonia solani, the “Disease Control Rating at 0.02 mg/mL” value worked out at 3, the “Disease Control Rating at 0.1 mg/mL” value is 3 and the “Disease Control Rating at 0.5 mg/mL” value is given as 3. Moreover, in the experiment on Botrytis cinerea [2], the pest or weed control at 50 ppm was 42% and the pest or weed control at 200 ppm came to 95%.
In the case of `Cn1cc(C(=O)Nc2ccccc2C=C2CCCCC2)c(C(F)F)n1` [Example 116, 1H-pyrazole-4-carboxamide, N-[2-(cyclohexylidenemethyl)phenyl]-3-(difluoromethyl)-1-methyl-], the IC50 on succinate dehydrogenase amounted to 0.048 µM. Moreover, in the experiment on Botrytis cinerea [1], the “Disease Control Rating at 20 ppm” value was determined as 0, the “Disease Control Rating at 100 ppm” value was determined as 0 and the “Disease Control Rating at 500 ppm” value came out at 1. In the experiment with Rhizoctonia solani, the “Disease Control Rating at 0.02 mg/mL” value worked out at 1, the “Disease Control Rating at 0.1 mg/mL” value was found to be 1 and the “Disease Control Rating at 0.5 mg/mL” value is given as 3. For the same compound, in the experiment on Botrytis cinerea [2], the pest or weed control at 50 ppm amounted to 21% and the pest or weed control at 200 ppm came out at 68%.
